Experiments:
Test in all cases: relative viability (nuclei count vs DMSO), 5 days (fraction); higher = more cells survive
Axitinib + OSI-027 = compound: CNC(=O)c1ccccc1Sc1ccc2c(/C=C/c3ccccn3)n[nH]c2c1 [Axitinib] + COc1cccc2cc(-c3nc([C@H]4CC[C@H](C(=O)O)CC4)n4ncnc(N)c34)[nH]c12 [OSI-027] (partner 0.5 µM)
Outline: (§1)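 One day after seeding in 1536-well plates, lung cancer cell lines were dosed by pin tool. Dosing was either single-drug or a fixed anchor-drug dose plus five library-drug doses (not always all listed) in √10 steps. After 5 days, nuclei were stained in one fix-and-stain step and counted on 4× images, and relative viability is the nuclei count of treated wells over that of vehicle wells, given as the median of duplicate plates.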

[1] = compound: CC1=CC=C(C=C1)C(=O)CN2C3=C(CCCC3)SC2=N [Pifithrin_alpha] + Cc1cc(Nc2cc(N3CCN(C)CC3)nc(Sc3ccc(NC(=O)C4CC4)cc3)n2)n[nH]1 [Tozasertib] (partner 0.1 µM)
Outline: as §1

Bemcentinib + Pictilisib = compound: Nc1nc(Nc2ccc3c(c2)CC[C@@H](N2CCCC2)CC3)nn1-c1cc2c(nn1)-c1ccccc1CCC2 [Bemcentinib] + CS(=O)(=O)N1CCN(Cc2cc3nc(-c4cccc5[nH]ncc45)nc(N4CCOCC4)c3s2)CC1 [Pictilisib] (partner 1 µM)
Outline: as §1

Bemcentinib + Vorinostat = compound: Nc1nc(Nc2ccc3c(c2)CC[C@@H](N2CCCC2)CC3)nn1-c1cc2c(nn1)-c1ccccc1CCC2 [Bemcentinib] + O=C(CCCCCCC(=O)Nc1ccccc1)NO [Vorinostat] (partner 1 µM)
Outline: as §1

| Cell Line | relative viability (Axitinib + OSI-027; first compound 0.005 µM) | relative viability (Axitinib + OSI-027; first compound 0.01581 µM) | relative viability (Axitinib + OSI-027; first compound 0.05 µM) | relative viability (Axitinib + OSI-027; first compound 0.1581 µM) | relative viability (Axitinib + OSI-027; first compound 0.5 µM) | relative viability ([1]; first compound 1 µM) | relative viability ([1]; first compound 3.162 µM) | relative viability ([1]; first compound 10 µM) | relative viability ([1]; first compound 31.62 µM) | relative viability ([1]; first compound 100 µM) | relative viability (Bemcentinib + Pictilisib; first compound 0.04 µM) | relative viability (Bemcentinib + Pictilisib; first compound 0.1265 µM) | relative viability (Bemcentinib + Pictilisib; first compound 0.4 µM) | relative viability (Bemcentinib + Pictilisib; first compound 1.265 µM) | relative viability (Bemcentinib + Pictilisib; first compound 4 µM) | relative viability (Bemcentinib + Vorinostat; first compound 0.04 µM) | relative viability (Bemcentinib + Vorinostat; first compound 0.1265 µM) | relative viability (Bemcentinib + Vorinostat; first compound 0.4 µM) | relative viability (Bemcentinib + Vorinostat; first compound 1.265 µM) | relative viability (Bemcentinib + Vorinostat; first compound 4 µM) |
| --- | --- | --- | --- | --- | --- | --- | --- | --- | --- | --- | --- | --- | --- | --- | --- | --- | --- | --- | --- | --- |
| LOU-NH91 | 0.736 | 0.513 | 0.745 | 0.719 | 0.707 | 0.663 | 0.612 | 0.637 | 0.543 | 0.578 | 0.498 | 0.526 | 0.556 | 0.524 | 0.483 | 0.845 | 0.871 | 0.999 | 0.917 | 0.945 |
| LU99A | 0.314 | 0.317 | 0.342 | 0.289 | 0.304 | 0.304 | 0.259 | 0.31 | 0.286 | 0.25 | 0.362 | 0.356 | 0.329 | 0.346 | 0.357 | 0.472 | 0.482 | 0.468 | 0.477 | 0.436 |
| LXF-289 | 0.76 | 0.727 | 0.785 | 0.763 | 0.877 | 0.209 | 0.172 | 0.174 | 0.147 | 0.14 | 0.871 | 0.854 | 0.814 | 0.79 | 0.844 | 0.658 | 0.799 | 0.662 | 0.796 | 0.763 |
| NCI-H522 | 0.765 | 0.665 | 0.572 | 0.857 | 0.647 | 0.585 | 0.55 | 0.592 | 0.522 | 0.593 |  |  |  |  |  | 0.87 | 0.959 | 0.859 | 0.799 | 0.907 |
| NCI-H1299 |  |  |  |  |  |  |  |  |  |  | 0.818 | 0.793 | 0.878 | 0.874 | 0.75 |  |  |  |  |  |
| NCI-H1563 | 0.708 | 0.705 | 0.742 | 0.705 | 0.704 |  |  |  |  |  | 0.634 | 0.629 | 0.635 | 0.655 | 0.626 |  |  |  |  |  |
| NCI-H1623 | 0.455 | 0.398 | 0.424 | 0.436 | 0.454 | 0.42 | 0.528 | 0.432 | 0.358 | 0.349 |  |  |  |  |  |  |  |  |  |  |
| NCI-H1648 | 0.258 | 0.238 |  | 0.245 | 0.249 | 0.592 | 0.513 | 0.393 | 0.47 | 0.421 |  |  |  |  |  | 0.598 | 0.362 | 0.385 | 0.386 | 0.457 |
| NCI-H1703 |  |  |  |  |  |  |  |  |  |  | 0.246 | 0.259 | 0.23 | 0.22 | 0.243 |  |  |  |  |  |
| NCI-H1792 | 0.785 | 0.652 | 0.563 | 0.679 | 0.919 |  |  |  |  |  | 0.3 | 0.281 | 0.238 | 0.337 | 0.288 |  |  |  |  |  |
| NCI-H2342 | 0.571 | 0.614 | 0.663 | 0.633 | 0.638 | 0.514 | 0.486 | 0.494 | 0.453 | 0.454 |  |  |  |  |  | 0.833 | 0.807 | 0.746 | 0.678 | 0.808 |
| SW 900 | 0.646 | 0.536 | 0.562 | 0.564 | 0.699 | 0.53 | 0.358 | 0.372 | 0.27 | 0.364 |  |  |  |  |  | 0.461 | 0.924 | 0.602 | 0.303 | 0.501 |

From the supplement of paper PMC10307832
